Our source for the IC50 values is patent US9493461B2, “Tetracyclic heterocycle compounds and methods of use thereof for the treatment of hepatitis C” (priority 2013, dated 2016).

Experiment [1] deals with HCV replicon genotype 1b. Kind of experiment: HCV replicon assay, genotype 1b (cell ELISA for replicon-encoded NS3/4A). Type of experiment: cell-based, hepatitis C virus (HCV). To be noted: Hepatitis C virus, 96 h, read-out: 1b IC50 (nM), genotype 1b replicon cells, 96 hours incubation, NS3/4A ELISA readout, % of DMSO control. In a few lines:
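Genotype 1b replicon cells (neomycin-selected, G418 removed for assay) incubated 96 h with compound dilution series. Replication measured by cell ELISA for replicon-encoded NS3/4A after lysis; IC50 from four-parameter fit relative to DMSO control.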
(In antiviral work, replicon cells carry a viral genome segment that copies itself.)

Experiment [2] deals with HCV replicon genotype 1a. Kind of experiment: HCV replicon assay, genotype 1a (cell ELISA for replicon-encoded NS3/4A). To be noted: Hepatitis C virus, 96 h, read-out: 1a IC50 (nM), genotype 1a replicon cells, 96 hours incubation, NS3/4A ELISA readout, % of DMSO control. Type of experiment: cell-based, hepatitis C virus (HCV). A digest of the protocol: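 Stable G418-selected neomycin-resistant HCV replicon cells were plated with serially diluted compound without G418 and incubated 96 h. After washing and lysis, replicon RNA was measured indirectly by cell ELISA for replicon-encoded NS3/4A; IC50 from four-parameter fit relative to DMSO control.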

Structures are written as SMILES.

Regarding `CNC(=O)c1c(-c2ccc(F)cc2)oc2cc(N(C)S(C)(=O)=O)c(-c3ccc4c(n3)-c3cc5c(F)cccc5n3C(CCO)N4)cc12` (centres unmarked) [Example 65, 5-(11-fluoro-6-(2-hydroxyethyl)-5,6-dihydropyrido[3′,2′:4,5]pyrimido[1,6-a]indol-2-yl)-2-(4-fluorophenyl)-N-methyl-6-(N-methylmethylsulfonamido)benzofuran-3-carboxamide], the IC50 is 2.42 nM in experiment [1] and 2.52 nM in experiment [2].

As to `CNC(=O)c1c(-c2ccc(F)cc2)oc2cc(N(C)S(C)(=O)=O)c(-c3ccc4c(n3)-c3cc5c(F)cccc5n3C(C)(C)N4)cc12` [Example 66, 5-(11-fluoro-6,6-dimethyl-5,6-dihydropyrido[3′,2′:4,5]pyrimido[1,6-a]indol-2-yl)-2-(4-fluorophenyl)-N-methyl-6-(N-methylmethylsulfonamido)benzofuran-3-carboxamide], the IC50 in experiment [1] worked out at 9.23 nM; in experiment [2] it was 5.96 nM.

Turning to `CNC(=O)c1c(-c2ccc(F)cc2)oc2cc(N(C)S(C)(=O)=O)c(-c3ccc4c(n3)-c3cc5c(F)cccc5n3CN4C)cc12` [Example 67, 5-(11-fluoro-5-methyl-5,6-dihydropyrido[3′,2′:4,5]pyrimido[1,6-a]indol-2-yl)-2-(4-fluorophenyl)-N-methyl-6-(N-methylmethylsulfonamido)benzofuran-3-carboxamide], the IC50 in experiment [1] turned out to be 2.72 nM; in experiment [2], 1.56 nM.

For the compound `CNC(=O)c1c(-c2ccc(F)cc2)oc2cc(N(C)S(C)(=O)=O)c(-c3ccc4c(n3)-c3cc5c(F)cccc5n3CN4CC(=O)OC)cc12` [Example 69, methyl 2-(11-fluoro-2-(2-(4-fluorophenyl)-3-(methylcarbamoyl)-6-(N-methylmethylsulfonamido)benzofuran-5-yl)pyrido[3′,2′:4,5]pyrimido[1,6-a]indol-5(6H)-yl)acetate], the IC50 in experiment [1] was 6.04 nM; in experiment [2], 9.69 nM.

On to `CNC(=O)c1c(-c2ccc(F)cc2)oc2cc(N(C)S(C)(=O)=O)c(-c3ccc4c(n3)-c3cc5c(F)cccc5n3CN4CC(=O)O)cc12` [Example 70, 2-(11-fluoro-2-(2-(4-fluorophenyl)-3-(methylcarbamoyl)-6-(N-methylmethylsulfonamido)benzofuran-5-yl)pyrido[3′,2′:4,5]pyrimido[1,6-a]indol-5(6H)-yl)acetic acid], for which the IC50 in experiment [1] stood at 26.8 nM; in experiment [2] it was 35.2 nM.

As to `CNC(=O)c1c(-c2ccc(F)cc2)oc2cc(N(C)S(C)(=O)=O)c(-c3ccc4c(n3)-c3cc5c(F)cccc5n3C(CC(=O)OC)N4)cc12` (centres unmarked) [Example 71, methyl 2-(11-fluoro-2-(2-(4-fluorophenyl)-3-(methylcarbamoyl)-6-(N-methylmethylsulfonamido)benzofuran-5-yl)-5,6-dihydropyrido[3′,2′:4,5]pyrimido[1,6-a]indol-6-yl)acetate], the IC50 was found to be 3.44 nM in experiment [1] and 2.98 nM in experiment [2].

Take `CNC(=O)c1c(-c2ccc(F)cc2)oc2cc(N(C)S(C)(=O)=O)c(-c3ccc4c(n3)-c3cc5c(F)cccc5n3C(CC(=O)O)N4)cc12` (centres unmarked) [Example 72, 2-(11-fluoro-2-(2-(4-fluorophenyl)-3-(methylcarbamoyl)-6-(N-methylmethylsulfonamido)benzofuran-5-yl)-5,6-dihydropyrido[3′,2′:4,5]pyrimido[1,6-a]indol-6-yl)acetic acid]: the IC50 in experiment [1] turned out to be 15.6 nM; in experiment [2] it was 22.8 nM.

Turning to `CNC(=O)c1c(-c2ccc(F)cc2)oc2cc(N(C)S(C)(=O)=O)c(-c3cc4c(cn3)ncn3c5cccc(F)c5cc43)cc12` [Example 74, 2-(4-fluorophenyl)-5-(11-fluoropyrido[3′,4′:4,5]pyrimido[1,6-a]indol-2-yl)-N-methyl-6-(N-methylmethylsulfonamido)benzofuran-3-carboxamide], the values for the IC50 in experiment [1] and in experiment [2] were 3.07 nM and 1.21 nM, respectively.

As to `CNC(=O)c1c(-c2ccc(F)cc2F)oc2cc(N(C)S(C)(=O)=O)c(-c3cc4c(cn3)ncn3c5cccc(F)c5cc43)cc12` [Example 75], the IC50 in experiment [1] amounted to 2.78 nM; in experiment [2], 1.03 nM.

Take `CNC(=O)c1c(-c2ccc(F)cc2)oc2cc(N(C)S(C)(=O)=O)c(-c3ccc4nc(CN5CC(F)C5)n5c6cccc(F)c6cc5c4n3)cc12` [Example 76, 3-fluoro-1-((11-fluoro-2-(2-(4-fluorophenyl)-3-(methylcarbamoyl)-6-(N-methylmethylsulfonamido)benzofuran-5-yl)pyrido[3′,2′:4,5]pyrimido[1,6-a]indol-6-yl)methyl)azetidin-1-ium methanesulfonate]: the IC50 in experiment [1] stood at 3.78 nM; in experiment [2], 4.13 nM.

In the case of `CNC(=O)c1c(-c2ccc(F)cc2)oc2cc(N(C)S(C)(=O)=O)c(-c3ccc4nc(CN5CC(O)C5)n5c6cccc(F)c6cc5c4n3)cc12` [Example 77], the IC50 in experiment [1] was 5.61 nM; in experiment [2] it was 5.26 nM.

Turning to `CNC(=O)c1c(-c2ccc(F)cc2)oc2cc(N(C)S(C)(=O)=O)c(-c3ccc4nc(CN5CC(C)(O)C5)n5c6cccc(F)c6cc5c4n3)cc12` [Example 78], the IC50 in experiment [1] was 3.34 nM; in experiment [2], 2.8 nM.

Regarding `CNC(=O)c1c(-c2ccc(F)cc2)oc2cc(N(C)S(C)(=O)=O)c(-c3ccc4nc(CN5CC6(CCOCC6)C5)n5c6cccc(F)c6cc5c4n3)cc12` [Example 79], the figures for the IC50 in experiment [1] and in experiment [2] were 3.99 nM and 2.37 nM, respectively.

Consider `CNC(=O)c1c(-c2ccc(F)cc2)oc2cc(N(C)S(C)(=O)=O)c(-c3ccc4nc(CN5CC(F)(F)C5)n5c6cccc(F)c6cc5c4n3)cc12` [Example 80], for which the IC50 came out at 2.46 nM in experiment [1] and 2.65 nM in experiment [2].

Consider `CNC(=O)c1c(-c2ccc(F)cc2)oc2cc(N(C)S(C)(=O)=O)c(-c3ccc4nc(CN5CC(C)(F)C5)n5c6cccc(F)c6cc5c4n3)cc12` [Example 81], for which the values for the IC50 in experiment [1] and in experiment [2] were 3.28 nM and 3.24 nM, respectively.

For `CNC(=O)c1c(-c2ccc(F)cc2)oc2cc(N(C)S(C)(=O)=O)c(-c3ccc4nc(CN5CCC(F)(F)C5)n5c6cccc(F)c6cc5c4n3)cc12` [Example 82], the IC50 in experiment [1] was 2.45 nM; in experiment [2] it was 2.74 nM.

`CNC(=O)c1c(-c2ccc(F)cc2)oc2cc(N(C)S(C)(=O)=O)c(-c3ccc4nc(CN5CC[C@H](O)C5)n5c6cccc(F)c6cc5c4n3)cc12` [Example 83]: the IC50 in experiment [1] stood at 1.31 nM; in experiment [2], 1.33 nM.

With `CNC(=O)c1c(-c2ccc(F)cc2)oc2cc(N(C)S(C)(=O)=O)c(-c3ccc4nc(CN5CCC5)n5c6cccc(F)c6cc5c4n3)cc12` [Example 84], the IC50 in experiment [1] came out at 1.96 nM; in experiment [2] it was 1.34 nM.

With `CNC(=O)c1c(-c2ccc(F)cc2)oc2cc(N(C)S(C)(=O)=O)c(-c3ccc4nc(CN5CC[C@@H](F)C5)n5c6cccc(F)c6cc5c4n3)cc12` [Example 85], the IC50 was 2.34 nM in experiment [1] and 1.76 nM in experiment [2].

Turning to `CNC(=O)c1c(-c2ccc(F)cc2)oc2cc(N(C)S(C)(=O)=O)c(-c3ccc4nc(CN5CC[C@H](F)C5)n5c6cccc(F)c6cc5c4n3)cc12` [Example 86], the IC50 is 2.66 nM in experiment [1] and 1.99 nM in experiment [2].

In the case of `CNC(=O)c1c(-c2ccc(F)cc2)oc2cc(N(C)S(C)(=O)=O)c(-c3ccc4nc(CN5CC[C@@H](O)C5)n5c6cccc(F)c6cc5c4n3)cc12` [Example 87], the IC50 was 1.26 nM in experiment [1] and 1.28 nM in experiment [2].

With `CNC(=O)c1c(-c2ccc(F)cc2)oc2cc(N(C)S(C)(=O)=O)c(-c3ccc4nc(CN5CC(OC)C5)n5c6cccc(F)c6cc5c4n3)cc12` [Example 88], the IC50 amounted to 4.22 nM in experiment [1] and 4.09 nM in experiment [2].

For `CNC(=O)c1c(-c2ccc(F)cc2)oc2cc(N(C)S(C)(=O)=O)c(-c3ccc4nc(CN5CC(C)(C#N)C5)n5c6cccc(F)c6cc5c4n3)cc12` [Example 89], the results for the IC50 in experiment [1] and in experiment [2] were 3.45 nM and 3.41 nM, respectively.

`CNC(=O)c1c(-c2ccc(F)cc2)oc2cc(N(C)S(C)(=O)=O)c(-c3ccc4nc(CN5CCOCC5)n5c6cccc(F)c6cc5c4n3)cc12` [Example 90]: the IC50 in experiment [1] was found to be 3.66 nM; in experiment [2] it was 3.62 nM.

For the compound `CNC(=O)c1c(-c2ccc(F)cc2)oc2cc(N(C)S(C)(=O)=O)c(-c3ccc4nc(CN5CC[C@H](OC)C5)n5c6cccc(F)c6cc5c4n3)cc12` [Example 91], the IC50 in experiment [1] was 6.54 nM; in experiment [2], 3.58 nM.

Take `CNC(=O)c1c(-c2ccc(F)cc2)oc2cc(N(C)S(C)(=O)=O)c(-c3ccc4nc(CN5CCC(F)(F)CC5)n5c6cccc(F)c6cc5c4n3)cc12` [Example 92]: the IC50 in experiment [1] turned out to be 23.7 nM; in experiment [2], 14.6 nM.

`CNC(=O)c1c(-c2ccc(F)cc2)oc2cc(N(C)S(C)(=O)=O)c(-c3ccc4nc(CN5CCC(C)(O)CC5)n5c6cccc(F)c6cc5c4n3)cc12` [Example 93]: the IC50 in experiment [1] was found to be 7.78 nM; in experiment [2] it was 4.19 nM.

Regarding `CNC(=O)c1c(-c2ccc(F)cc2)oc2cc(N(C)S(C)(=O)=O)c(-c3ccc4nc(CN5CC(O)(C(F)(F)F)C5)n5c6cccc(F)c6cc5c4n3)cc12` [Example 94], the IC50 in experiment [1] is 6.98 nM; in experiment [2] it was 4.33 nM.

As to `CNC(=O)c1c(-c2ccc(F)cc2)oc2cc(N(C)S(C)(=O)=O)c(-c3ccc4nc(CN5CC(O)(C6CC6)C5)n5c6cccc(F)c6cc5c4n3)cc12` [Example 95], the IC50 is 9.12 nM in experiment [1] and 4.55 nM in experiment [2].

`CNC(=O)c1c(-c2ccc(F)cc2)oc2cc(N(C)S(C)(=O)=O)c(-c3ccc4nc(CN5[C@H](C)COC[C@@H]5C)n5c6cccc(F)c6cc5c4n3)cc12` [Example 96]: the IC50 in experiment [1] was determined as 11.2 nM; in experiment [2], 7.76 nM.

`CNC(=O)c1c(-c2ccc(F)cc2)oc2cc(N(C)S(C)(=O)=O)c(-c3ccc4nc(CN5CC(C(C)(C)O)C5)n5c6cccc(F)c6cc5c4n3)cc12` [Example 97]: the IC50 in experiment [1] was 3.49 nM; in experiment [2], 2.98 nM.
